From patent US7713994B2 (Wyeth LLC, priority 2005, dated 2010) come the findings set out here.

Each structure is given as a SMILES string. Read-outs that look alike come from different tables or passages of the source.

Experiment [1] deals with T1, cyclin D1/cdk 4 enzyme (Homo sapiens, UniProt P11802).
T1 construct: made in house; host or cells: Sf9 insect cells, recombinant baculovirus
The experiment can be described thus: CDK4 ELISA kinase assay (phospho-Rb ser 795 detection). The experiment is classed as biochemical. In a few lines: (§1)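 Inhibition was derived from A450 relative to control wells lacking compound, following an anti-phospho-Rb Ser795 sandwich of HRP detection. The reactions combined coated GST-Rb fragment, 200 μM ATP and baculovirus-expressed cyclin/CDK enzymes, incubated for 1 h at 30° C.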
For orientation: In an ELISA, binding on a coated surface is turned into a signal by an enzyme label.

The target of experiment [2] is T2, cyclin E/CDK2 enzyme (Homo sapiens, UniProt P24941).
T2 construct: made in house; host or cells: Sf9 insect cells, recombinant baculovirus
The experiment can be described thus: CDK2 ELISA kinase assay (phospho-Rb ser 795 detection). It counts as biochemical. In outline:
as §1

The target of experiment [3] is T3, cyclin B/CDK1 enzyme (Homo sapiens, UniProt P06493).
T3 construct: purchased New England BioLabs; host or cells: Sf9 insect cells, recombinant baculovirus
The experiment can be described thus: CDK1 ELISA kinase assay (phospho-Rb ser 795 detection). The experiment is classed as biochemical. In outline: as §1

Experiment [4] relates to BT474. Nature of the experiment: Cytotoxicity assay (SRB), BT474. It counts as cell-based. In outline:
(§2)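 BT474 (12000 cells/well) was treated for 6 days, whereas HCT-116 (4000), LoVo (6000) and MCF-7 (6000) were treated for 3 days, all in RPMI 1640 containing 5% FBS. Surviving-cell percentage came from SRB dye binding measured at 540 nm.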

Experiment [5] deals with HCT-116. The experiment can be described thus: Cytotoxicity assay (SRB), HCT-116. It counts as cell-based. The conditions noted are these: HCT116 cells, SRB, read-out: In Vitro Cellular Activity IC50 HCT116. In a few lines: as §2
The test system of experiment [6] is LoVo. The experiment can be described thus: Cytotoxicity assay (SRB), LoVo. The conditions noted are these: LoVo cells, SRB, read-out: In Vitro Cellular Activity IC50 LOVO. It counts as cell-based. In a few lines: as §2
Experiment [7] relates to MCF-7. Nature of the experiment: Cytotoxicity assay (SRB), MCF-7. The experiment is classed as cell-based. The conditions noted are these: MCF-7 cells, SRB, read-out: In Vitro Cellular Activity IC50 MCF-7. In outline: as §2
Where [8] appears, read: In Vitro Enzyme Assays, 200 μM ATP, read-out: CDK4 IC50.
Where [9] appears, read: In Vitro Enzyme Assays, read-out: CDK2 IC50.
Setting [10] is: In Vitro Enzyme Assays, read-out: CDK1 IC50.
[11] abbreviates: In Vitro Enzyme Assay, read-out: CDK4 IC50.
[12] abbreviates: In Vitro Enzyme Assay, read-out: CDK2 IC50.
The mark [13] stands for this setting: In Vitro Enzyme Assay, read-out: CDK1 IC50.
[14] abbreviates: Homo sapiens, BT-474, 144 h, BT474 cells, 6 days, SRB; read-out: In Vitro Cellular Activity IC50 BT474.
[15] abbreviates: Homo sapiens, HCT-116, 72 h, 3 days.
[16] abbreviates: Homo sapiens, LoVo, 72 h, 3 days.
[17] abbreviates: Homo sapiens, MCF7, 72 h, 3 days.
Setting [18] is: Homo sapiens, BT-474, 144 h, BT474 cells, SRB, 6 days; read-out: In Vitro Cellular Activity IC50 BT474.
Where [19] appears, read: Homo sapiens, HCT-116, 72 h, three days.
Where [20] appears, read: Homo sapiens, LoVo, 72 h, three days.
Where [21] appears, read: Homo sapiens, MCF7, 72 h, three days.

T3 sequence (P06493 whole entry): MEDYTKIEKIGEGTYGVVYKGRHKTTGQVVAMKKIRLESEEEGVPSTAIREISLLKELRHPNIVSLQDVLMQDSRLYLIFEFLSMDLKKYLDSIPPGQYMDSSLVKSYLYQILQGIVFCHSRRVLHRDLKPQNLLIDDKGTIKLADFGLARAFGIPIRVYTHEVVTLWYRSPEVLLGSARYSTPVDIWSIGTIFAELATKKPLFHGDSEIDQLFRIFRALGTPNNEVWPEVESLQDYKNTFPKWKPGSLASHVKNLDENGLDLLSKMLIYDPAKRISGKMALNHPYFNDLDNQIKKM
T3 sequence (P14635 whole entry partner): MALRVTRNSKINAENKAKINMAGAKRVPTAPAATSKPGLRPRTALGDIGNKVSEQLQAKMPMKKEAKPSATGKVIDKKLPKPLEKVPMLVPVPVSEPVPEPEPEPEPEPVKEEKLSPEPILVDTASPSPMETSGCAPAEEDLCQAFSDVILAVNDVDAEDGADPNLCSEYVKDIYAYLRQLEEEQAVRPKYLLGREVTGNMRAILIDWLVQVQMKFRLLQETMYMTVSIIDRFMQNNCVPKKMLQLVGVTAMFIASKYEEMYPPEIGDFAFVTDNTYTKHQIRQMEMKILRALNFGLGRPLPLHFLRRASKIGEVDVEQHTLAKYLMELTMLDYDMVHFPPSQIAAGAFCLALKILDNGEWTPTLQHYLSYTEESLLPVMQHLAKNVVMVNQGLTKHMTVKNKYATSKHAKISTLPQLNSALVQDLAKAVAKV
T1 sequence (P11802 whole entry, species assumed): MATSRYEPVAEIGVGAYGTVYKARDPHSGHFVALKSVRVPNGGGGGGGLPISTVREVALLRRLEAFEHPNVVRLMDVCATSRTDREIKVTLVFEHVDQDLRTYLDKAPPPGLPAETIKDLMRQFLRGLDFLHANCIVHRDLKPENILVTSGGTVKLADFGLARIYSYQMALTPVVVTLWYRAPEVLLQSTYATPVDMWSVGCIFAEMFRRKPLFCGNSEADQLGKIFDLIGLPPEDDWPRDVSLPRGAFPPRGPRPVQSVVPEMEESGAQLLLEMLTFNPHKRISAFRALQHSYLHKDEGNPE
T1 sequence (P24385 whole entry partner, species assumed): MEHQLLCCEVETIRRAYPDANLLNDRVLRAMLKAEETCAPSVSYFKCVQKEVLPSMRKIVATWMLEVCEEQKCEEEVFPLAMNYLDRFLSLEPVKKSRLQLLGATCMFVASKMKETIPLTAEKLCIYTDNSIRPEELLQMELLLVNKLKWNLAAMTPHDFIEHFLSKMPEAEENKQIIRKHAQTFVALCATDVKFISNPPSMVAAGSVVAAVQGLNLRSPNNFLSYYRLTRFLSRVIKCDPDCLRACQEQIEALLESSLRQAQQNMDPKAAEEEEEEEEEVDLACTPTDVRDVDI

On to `CCCOc1ccc(CN/C=C2\C(=O)NC(=O)c3ccc(I)cc32)nc1Br` [Example 379, (Z)-4-(((6-Bromo-5-propoxypyridin-2-yl)methylamino)methylene)-6-iodoisoquinoline-1,3(2H,4H)-dione], for which the IC50 was 690 nM in experiment [1] (setting [8]); more than 50 µM in experiment [2] (setting [9]); more than 50 µM in experiment [3] (setting [10]); 1.4 µM in experiment [4] (BT474 cells, SRB, 6 days; read-out: In Vitro Cellular Activity IC50 BT474); 2.1 µM in experiment [5] (three days); 2.6 µM in experiment [6] (three days). In addition, in experiment [7] (three days), the IC50 was 14 µM.
Regarding `CC1(C)Oc2cc(CN/C=C3\C(=O)NC(=O)c4ccc(Br)cc43)cc(OC(=O)C3CC3)c2O1` [Example 873, 6-({[(Z)-(6-Bromo-1,3-dioxo-2,3-dihydroisoquinolin-4(1H)-ylidene)methyl]amino}methyl)-2,2-dimethyl-1,3-benzodioxol-4-yl cyclopropanecarboxylate], the IC50 was more than 50000 nM in experiment [1] (setting [11]); 24.7 µM in experiment [2] (setting [12]); 1.9 µM in experiment [3] (setting [13]); 42.7 µM in experiment [4] (setting [14]); 24.5 µM in experiment [5] (setting [15]); 41.1 µM in experiment [6] (setting [16]). Besides, the IC50 in experiment [7] (setting [17]) worked out at 29.2 µM.
On to `O=C1NC(=O)c2ccc(I)cc2/C1=C/NCc1cc(O)ccc1-c1ccco1` [Example 499, 4-[(2-Furan-2-yl-5-hydroxy-benzylamino)-methylene]-6-iodo-4H-isoquinoline-1,3-dione], for which the IC50 in experiment [1] (In Vitro Enzyme Assay, cyclin D1/cdk 4, read-out: CDK4 IC50) was 5400 nM; in experiment [2] (In Vitro Enzyme Assay, cyclin E/CDK2, read-out: CDK2 IC50) it was 41.5 µM; in experiment [3] (In Vitro Enzyme Assay, cyclin B/CDK1, read-out: CDK1 IC50), more than 50 µM; in experiment [4] (setting [14]), 9.8 µM; in experiment [5] (setting [15]), 4.8 µM; in experiment [6] (setting [16]), 8.4 µM. In addition, in experiment [7] (setting [17]), the IC50 amounted to 9.1 µM.
For the compound `CN1CCN(c2ccc(N/C=C3\C(=O)NC(=O)c4ccc(-c5ccsc5)cc43)cn2)CC1` [Example 396, (4Z)-4-({[6-(4-Methylpiperazin-1-yl)pyridin-3-yl]amino}methylene)-6-thien-3-ylisoquinoline-1,3(2H,4H)-dione], the IC50 is 20 nM in experiment [1] (setting [8]); more than 50 µM in experiment [2] (setting [9]); more than 50 µM in experiment [3] (setting [10]); 2.8 µM in experiment [4] (setting [14]); 1.4 µM in experiment [5] (setting [15]); 3.1 µM in experiment [6] (setting [16]). Further, the IC50 in experiment [7] (setting [17]) worked out at 3.8 µM.
Turning to `O=C1NC(=O)c2ccc(Br)cc2/C1=C/NCc1ccc(NC(=O)C(Cl)Cl)c(O)c1` [Example 320, N-[4-({[(Z)-(6-Bromo-1,3-dioxo-2,3-dihydroisoquinolin-4(1H)-ylidene)methyl]amino}methyl)-2-hydroxyphenyl]-2,2-dichloroacetamide], the IC50 in experiment [1] (setting [8]) worked out at 120 nM; in experiment [2] (setting [9]) it was 4 µM; in experiment [3] (setting [10]), 6.8 µM; in experiment [4] (setting [18]) it was 2 µM; in experiment [5] (setting [19]), 2.1 µM; in experiment [6] (setting [20]) it was 4.5 µM. Moreover, the concentration for half-maximal inhibition (IC50) in experiment [7] (setting [21]) came to 4.9 µM.
`CCN(CC)CCCCN/C=C1\C(=O)NC(=O)c2ccc(Br)cc21` [Example 308, (Z)-6-Bromo-4-((4-(diethylamino)butylamino)methylene)isoquinoline-1,3(2H,4H)-dione]: the IC50 is 2600 nM in experiment [1] (setting [8]); more than 50 µM in experiment [2] (setting [9]); more than 50 µM in experiment [3] (setting [10]); 23 µM in experiment [4] (setting [18]); 21 µM in experiment [5] (setting [19]); 16 µM in experiment [6] (setting [20]). Besides, the IC50 in experiment [7] (setting [21]) was 23 µM.
In the case of `CN(C)CCOc1ccc(N/C=C2\C(=O)NC(=O)c3ccc(Br)cc32)cc1` [Example 867, (4Z)-6-Bromo-4-[({4-[2-(dimethylamino)ethoxy]phenyl}amino)methylene]isoquinoline-1,3(2H,4H)-dione], the 50% inhibitory concentration (IC50) in experiment [1] (setting [11]) was 480 nM; in experiment [2] (setting [12]), more than 50 µM; in experiment [3] (setting [13]) it was more than 50 µM; in experiment [4] (setting [14]), 8.3 µM; in experiment [5] (setting [15]) it was 3.5 µM; in experiment [6] (setting [16]), 5.3 µM. In addition, in experiment [7] (setting [17]), the half-maximal inhibitory concentration (IC50) was determined as 6.7 µM.

A word on the IC50: it is the concentration that gives 50% inhibition.
